Here are results for 16 molecules from publication PMC10081510 (Journal of medicinal chemistry, 2022).

Series [1] in a line: Clinical observations during mouse PK studies. In kind it is in vivo. The settings on record: CD-1 mice; for tolerability / clinical signs: 3 mg/kg iv and 10 mg/kg po.
The nature of series [2]: In vivo pharmacokinetic studies. On the set-up: species or system CD-1 mice. Conditions: for clearance / AUC(0-inf) / Vd / Cmax / bioavailability / half-life: male, CD-1, mouse, plasma.
The test system of series [3] is MV4:11. In words: Cell proliferation assay. It is filed as cell-based. The settings on record: GI50,K562/GI50,MV4:11.
The target of series [4] is WDR5 (Homo sapiens, UniProt P61964). Description: TR-FRET competition assay against MLL1-derived 10-mer-Thr-FAM peptide probe. It is filed as binding. Background: In TR-FRET formats the signal depends on donor and acceptor labels being close together.
Series [5] relates to K562. In words: Cell proliferation assay. It is filed as cell-based. The settings on record: Homo sapiens, K562, 120 h, read-out: Cell Proliferation Assays GI50 (nM) K562.
The nature of series [6]: Kinetic solubility assay. Conditions: phosphate-buffered saline, pH 7.4. It is filed as physicochemical.
Series [7] is described as follows: Microsomal intrinsic clearance assay. In kind it is in vitro ADME. The settings on record: rat, pooled liver microsomes. (In general: Liver microsomes are a subcellular fraction often used to study metabolism.)
Series [8] deals with MV4:11 cancer cells. The settings on record: cited from earlier work.
The subject of series [9] is MV4:11 mouse xenograft. Conditions: ip (DDO-2093) and po (DDO-2213) dosing; cited from earlier work.
The test system of series [10] is mouse models. Conditions: cited from earlier work.

SMILES strings stand for the structures. In brackets after ≈: the same amount, converted by molar mass. Entries after “also recorded” stand apart in the source; their conditions may differ. A value given as a limit tells only on which side of the number the result lay.

The clearance is the volume of plasma or blood freed of the substance per unit of time. A low value points to inefficient removal. `COc1cc(CN2CCc3c(cc(Cn4ccn(C)c4=N)cc3-c3ccc(F)cc3C)C2=O)cc(OC)c1` [Compound 1]: the acute toxicity signs entry in series [1] (3 mg/kg iv, 3 mg/kg) is listed as “signs of severe acute toxicity; also recorded: lethality”. In addition, the oral exposure result in series [2] (CD-1 mice, 3 mg/kg po) is given as “below the limit of quantitation”. In series [2] (iv, 3 mg/kg), the clearance is 78 mL/min/kg.
For the molecule `COc1cc(CN2CCc3c(cc(Cn4cccn4)cc3-c3cn(C)nc3C(F)(F)F)C2=O)cc(OC)c1` [Compound 17, 7-((1H-Pyrazol-1-yl)methyl)-2-(3,5-dimethoxybenzyl)-5-(1-methyl-3-(trifluoromethyl)-1H-pyrazol-4-yl)-3,4-dihydroisoquinolin-1(2H)-one], in [3], the “Selectivity K562/MV4:11” value is recorded as more than 1.
With `COc1cc(CN2CCc3c(cc(Cn4cccc4)cc3-c3cn(C)nc3C(F)(F)F)C2=O)cc(OC)c1` [Compound 18, 7-((1H-Pyrrol-1-yl)methyl)-2-(3,5-dimethoxybenzyl)-5-(1-methyl-3-(trifluoromethyl)-1H-pyrazol-4-yl)-3,4-dihydroisoquinolin-1(2H)-one], the “Selectivity K562/MV4:11” value in [3] is more than 2.
For `COc1cc(CN2CCc3c(cc(Cn4cnnc4)cc3-c3cn(C)nc3C(F)(F)F)C2=O)cc(OC)c1` [Compound 19, 7-((4H-1,2,4-Triazol-4-yl)methyl)-2-(3,5-dimethoxybenzyl)-5-(1-methyl-3-(trifluoromethyl)-1H-pyrazol-4-yl)-3,4-dihydroisoquinolin-1(2H)-one], the “Selectivity K562/MV4:11” value in [3] is listed as more than 2.
What is called Ki is a dissociation constant, usually derived from enzyme kinetics or from competition with a known ligand. A lower Ki goes with a stronger hold on the target. The molecule `CCc1nccn1Cc1cc2c(c(-c3cn(C)nc3C(F)(F)F)c1)CCN(Cc1cc(OC)cc(OC)c1)C2=O` [Compound 21, 2-(3,5-Dimethoxybenzyl)-7-((2-ethyl-1H-imidazol-1-yl)methyl)-5-(1-methyl-3-(trifluoromethyl)-1H-pyrazol-4-yl)-3,4-dihydroisoquinolin-1(2H)-one] came in with a Ki in series [4] of 0.022 ± 0.001 nM.
As to `COc1cc(CN2CCc3c(cc(Cn4ccnc4C(C)C)cc3-c3cn(C)nc3C(F)(F)F)C2=O)cc(OC)c1` [Compound 22, 2-(3,5-Dimethoxybenzyl)-7-((2-isopropyl-1H-imidazol-1-yl)methyl)-5-(1-methyl-3-(trifluoromethyl)-1H-pyrazol-4-yl)-3,4-dihydroisoquinolin-1(2H)-one], the GI50 in [5] is 16000 ± 3100 nM.
With `COc1cc(CN2CCc3c(cc(Cn4ccnc4C(F)F)cc3-c3cn(C)nc3C(F)(F)F)C2=O)cc(OC)c1` [Compound 24, 7-((2-(Difluoromethyl)-1H-imidazol-1-yl)methyl)-2-(3,5-dimethoxybenzyl)-5-(1-methyl-3-(trifluoromethyl)-1H-pyrazol-4-yl)-3,4-dihydroisoquinolin-1(2H)-one], in series [3], the “Selectivity K562/MV4:11” value is reported as more than 3.
For `CCn1cc(-c2cc(Cn3ccnc3C)cc3c2CCN([C@@H](C)c2cc(OC)ccn2)C3=O)c(C(F)(F)F)n1` [Compound 34, (S)-5-(1-Ethyl-3-(trifluoromethyl)-1H-pyrazol-4-yl)-2-(1-(4-methoxypyridin-2-yl)ethyl)-7-((2-methyl-1H-imidazol-1-yl)methyl)-3,4-dihydroisoquinolin-1(2H)-one], the “tolerability / clinical signs” value in [1] was “behaved normally during the study and showed no adverse effects”. Moreover, the clearance in series [2] (iv, 3 mg/kg) is 118 mL/min/kg.
Broadly, the kinetic solubility is the concentration staying in solution when a stock, usually in DMSO, is diluted into the medium. A word on the AUC(0-inf): it is the area under the concentration-time curve extrapolated to infinity. A high value points to high exposure. In general, Vd refers to the apparent volume that relates the amount in the body to the concentration in plasma or blood. Broadly, the Cmax is the peak of the concentration-time curve. As a reminder, the bioavailability is dose-corrected exposure relative to a reference, in per cent. Read a high bioavailability as good availability. What is called half-life is how long it takes for the measured level to halve. On to `CCn1cc(-c2cc(Cn3ccnc3C)cc3c2CCN([C@H](c2cc(OC)ccn2)C2CC2)C3=O)c(C(F)(F)F)n1` [Compound 36, (S)-2-(Cyclopropyl(4-methoxypyridin-2-yl)methyl)-5-(1-ethyl-3-(trifluoromethyl)-1H-pyrazol-4-yl)-7-((2-methyl-1H-imidazol-1-yl)methyl)-3,4-dihydroisoquinolin-1(2H)-one], for which the Ki in series [4] is less than 0.02 nM. The “tolerability / clinical signs” value in series [1] is “behaved normally during the study and showed no adverse effects”. Besides, in [6], the solubility (kinetic) at 1 h was 65 µM (≈ 36.7 µg/mL). In series [5], the GI50 worked out at 2600 ± 1500 nM. In series [2] (iv, 3 mg/kg), this molecule registered an AUC(0-inf) of 1240 ng·h/mL, a Vd of 1.6 L/kg and a clearance of 41 mL/min/kg. Moreover, in [2] (po, 10 mg/kg), the AUC(0-inf) was found to be 508 ng·h/mL, the Cmax came out at 652 ng/mL, the bioavailability turned out to be 12% and the half-life was 1.4 h.
For the molecule `CCn1cc(-c2cc(Cn3ccnc3C)cc3c2CCN([C@H](c2cc(C)ccn2)C2CC2)C3=O)c(C(F)(F)F)n1` [Compound 37, (S)-2-(Cyclopropyl(4-methylpyridin-2-yl)methyl)-5-(1-ethyl-3-(trifluoromethyl)-1H-pyrazol-4-yl)-7-((2-methyl-1H-imidazol-1-yl)methyl)-3,4-dihydroisoquinolin-1(2H)-one], the “tolerability / clinical signs” value in series [1] is “behaved normally during the study and showed no adverse effects”. Moreover, in series [2] (iv, 3 mg/kg), the clearance is 25 mL/min/kg.
Broadly, the microsomal CLint is the capacity of the preparation to metabolise the compound, expressed as a volume cleared per time. On to `CCn1cc(-c2cc(Cn3ccnc3)cc3c2CCN([C@@H](C)c2cc(OC)ccn2)C3=O)c(C(F)(F)F)n1` [Compound 38, (S)-7-((1H-Imidazol-1-yl)methyl)-5-(1-ethyl-3-(trifluoromethyl)-1H-pyrazol-4-yl)-2-(1-(4-methoxypyridin-2-yl)ethyl)-3,4-dihydroisoquinolin-1(2H)-one], for which the Ki in series [4] is less than 0.02 nM. Besides, the “tolerability / clinical signs” value in series [1] is “behaved normally during the study and showed no adverse effects”. The molecule further gave a kinetic solubility at 1 h in series [6] of 86 µM (≈ 45.1 µg/mL). Also, the GI50 in [5] was 1900 ± 1800 nM. In series [7], this molecule had a half-life at 1 μM of 0.367 h and a microsomal CLint at 1 μM of 31 µL/min/mg. In series [2] (iv, 3 mg/kg), this molecule showed an AUC(0-inf) of 707 ng·h/mL, a Vd of 2.3 L/kg and a clearance of 76 mL/min/kg. This molecule registered a bioavailability in series [2] (oral, 10 mg/kg) of 73%. In series [2] (po, 10 mg/kg), this molecule showed an AUC(0-inf) of 1710 ng·h/mL, a Cmax of 2010 ng/mL and a half-life of 1.2 h. Moreover, the “Selectivity K562/MV4:11” value in [3] worked out at 200.
On to `CCn1cc(-c2cc(Cn3ccnc3)cc3c2CCN([C@H](c2cc(OC)ccn2)C2CC2)C3=O)c(C(F)(F)F)n1` [Compound 40, (S)-7-((1H-Imidazol-1-yl)methyl)-2-(cyclopropyl(4-methoxypyridin-2-yl)methyl)-5-(1-ethyl-3-(trifluoromethyl)-1H-pyrazol-4-yl)-3,4-dihydroisoquinolin-1(2H)-one], for which the “tolerability / clinical signs” value in series [1] is “behaved normally during the study and showed no adverse effects”.
`CCn1cc(-c2cc(Cn3ccnc3)cc3c2CCN([C@H](c2cc(C)ccn2)C2CC2)C3=O)c(C(F)(F)F)n1` [Compound 41, (S)-7-((1H-Imidazol-1-yl)methyl)-2-(cyclopropyl(4-methylpyridin-2-yl)methyl)-5-(1-ethyl-3-(trifluoromethyl)-1H-pyrazol-4-yl)-3,4-dihydroisoquinolin-1(2H)-one] showed a Ki in series [4] of less than 0.02 nM. In series [1], the “tolerability / clinical signs” value was “behaved normally during the study and showed no adverse effects”. The same molecule yielded a solubility (kinetic) at 1 h in series [6] of 60 µM (≈ 32.1 µg/mL). The GI50 in [5] was found to be 3700 ± 3100 nM. In [2] (iv, 3 mg/kg), this molecule yielded an AUC(0-inf) of 1950 ng·h/mL, a Vd of 1.6 L/kg and a clearance of 26 mL/min/kg. Moreover, the bioavailability in series [2] (oral, 10 mg/kg) worked out at 61%. Further, in [2] (po, 10 mg/kg), the AUC(0-inf) worked out at 3980 ng·h/mL, the Cmax turned out to be 2080 ng/mL and the half-life is 1.3 h. In series [3], the “Selectivity K562/MV4:11” value was found to be 290.
For the molecule `Cc1c(F)c(N)cc(C(=O)Nc2cc(-n3cc(C(=O)NCCCN4CCOCC4)nn3)ccc2N2CCN(C)CC2)c1Cl` [DDO-2093], in series [8], the GI50 is approximately 10000 nM. Moreover, in [9], the “in vivo tumor growth inhibition” value is recorded as “marginal in vivo tumor growth inhibition”.
In the case of `CN1CCN(c2cc(F)c(-c3ccc(NC(=O)N(C)C)cc3)cc2Nc2ncnc(Cl)c2N)CC1` [DDO-2213], the GI50 in series [8] was approximately 10000 nM. Also, the “in vivo tumor growth inhibition” value in series [9] was “marginal in vivo tumor growth inhibition”.
In the case of `Cc1ncsc1-c1ccc([C@H](C)NC(=O)[C@@H]2C[C@@H](O)CN2C(=O)[C@@H](NC(=O)CNC(=O)c2ccc(F)c(-c3ccc(N4C[C@@H](C)N(C)[C@@H](C)C4)c(NC(=O)c4c[nH]c(=O)cc4C(F)(F)F)c3)c2)C(C)(C)C)cc1` [MS67], the “in vivo tumor growth inhibition” value in series [10] is recorded as “demonstrated in vivo tumor growth inhibition”.
